Results reported in patent US11286247B2, “Acryloyl-containing nuclear transport regulators and uses thereof” (WIGEN BIOMEDICINE TECHNOLOGY (SHANGHAI) CO., LTD., priority 2019, dated 2022).

Key:
[1] = In vivo pharmacokinetic analysis; conditions: ICR, mouse; mice, 5 mg/kg, oral gavage in 0.5% CMC, plasma
Description: A group of 9 ICR mice received 5 mg/kg of compound in 0.5% CMC by oral gavage. Blood was taken before treatment and at 5 min, 30 min, 1, 2, 4, 8, 12 and 24 h after treatment. 80 μL of whole blood was sampled (n=3 at each time point) via retro-orbital bleeds or cardiac puncture. The blood sample was collected into EDTA tubes and plasma were obtained by centrifugation at 1500-1600 rpm for 10 min at 4° C. After centrifugation, plasma sample was transferred to a new tube and stored at −60 to −90° C. for future analysis. Plasma concentration of (compounds was quantified by a method based on liquid chromatography coupled to tandem mass-spectrometric detections (LC/MS/MS). Noncompartmental pharmacokinetics parameters were calculated.

[2] = molecular target: T1, CRM1 (Homo sapiens, UniProt O14980); assay: Rev-GFP nuclear export assay; format: cell-based; conditions: U2OS cells expressing Rev-GFP, 1 hour incubation, nuclear retention of Rev-GFP
T1 construct: The nuclear localization of Rev protein depends on CRM1; endogenous in cells; host or cells: U2OS cells stably or transiently expressing Rev-GFP (reporter cargo)
Description: The Rev protein from HIV contains nuclear export sequence (NES) at its C terminus and nuclear localization sequence (NLS) at its N-terminus. The nuclear localization of Rev protein depends on CRM1. U2OS cells expressing Rev protein fused with GFP (Rev-GFP) were plated in black 384 plates with clear bottom one day prior to treatment. Compounds were serially diluted 2-fold from 40 μM with DMEM in 384 plates, and then incubated with U2OS cells for an hour. Cells were fixed with 3.7% formaldehyde afterwards and nuclei were stained with Hoechst33258. The nuclear retention of Rev-GFP was examined, and IC50 was calculated.

[3] = tested on: BxPC-3 cells (pancreatic cancer); assay: Cancer cell proliferation assay, BxPC-3; format: cell-based; conditions: Homo sapiens, BXPC-3, 72 h; three days incubation, absorbance 570 nm; read-out: IC50 (μM) BxPC-3
Description: (§1) BxPC-3 cells (pancreatic cancer) and MDA-MB-231 cells (breast cancer cells) were harvested from exponential phase cultures and seeded in 96-well plates at a cell density of 2×10^4 per well. After overnight attachment, compounds including positive controls were applied to cells at five concentrations and incubated for three days. During the last four hours of incubation, 20 μL of 5 mg/mL […] was added followed by the further addition of 100 μL DMSO. The plates were subsequently shook for 10 minutes to dissolve insoluble purple formazan. Absorbance (A) at a wavelength of 570 nm was quantified. Percentage of inhibition was used for the calculation of IC50 based on the bliss method.

[4] = tested on: MDA-MB-231 cells (breast cancer cells); assay: Cancer cell proliferation assay, MDA-MB-231; format: cell-based; conditions: Homo sapiens, MDA-MB-231, 72 h; three days incubation, absorbance 570 nm; read-out: IC50 (μM) MDA-MB-231
Description: as §1

T1 sequence (O14980 whole entry): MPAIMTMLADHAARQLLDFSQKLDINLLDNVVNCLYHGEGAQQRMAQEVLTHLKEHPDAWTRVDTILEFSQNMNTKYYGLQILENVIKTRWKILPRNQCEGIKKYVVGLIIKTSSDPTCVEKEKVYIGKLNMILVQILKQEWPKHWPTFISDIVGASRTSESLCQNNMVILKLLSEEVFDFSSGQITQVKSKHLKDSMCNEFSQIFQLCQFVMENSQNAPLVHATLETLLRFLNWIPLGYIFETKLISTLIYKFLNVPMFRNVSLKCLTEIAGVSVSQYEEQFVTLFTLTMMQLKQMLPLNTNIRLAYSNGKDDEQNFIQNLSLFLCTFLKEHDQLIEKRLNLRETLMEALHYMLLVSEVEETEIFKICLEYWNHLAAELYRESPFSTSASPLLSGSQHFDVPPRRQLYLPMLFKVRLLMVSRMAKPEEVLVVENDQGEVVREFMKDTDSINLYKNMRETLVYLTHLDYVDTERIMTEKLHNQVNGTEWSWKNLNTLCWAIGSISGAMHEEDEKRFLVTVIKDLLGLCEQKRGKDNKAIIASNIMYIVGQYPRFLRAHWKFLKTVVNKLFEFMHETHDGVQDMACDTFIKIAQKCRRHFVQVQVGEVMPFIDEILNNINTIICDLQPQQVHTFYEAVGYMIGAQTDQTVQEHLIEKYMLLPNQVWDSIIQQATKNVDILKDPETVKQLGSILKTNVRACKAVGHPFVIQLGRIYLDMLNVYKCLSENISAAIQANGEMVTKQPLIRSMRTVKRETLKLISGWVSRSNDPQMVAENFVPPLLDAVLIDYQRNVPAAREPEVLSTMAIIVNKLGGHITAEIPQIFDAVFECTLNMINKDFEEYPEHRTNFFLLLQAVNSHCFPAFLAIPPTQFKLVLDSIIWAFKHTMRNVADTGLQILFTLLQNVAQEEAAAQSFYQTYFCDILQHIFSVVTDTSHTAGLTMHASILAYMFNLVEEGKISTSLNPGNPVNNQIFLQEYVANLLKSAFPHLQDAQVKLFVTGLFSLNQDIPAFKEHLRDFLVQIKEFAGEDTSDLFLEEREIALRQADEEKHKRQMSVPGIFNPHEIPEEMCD

SMILES	AUC(0-t) [1]	Cmax [1]	MRT [1]	Tmax [1]	half-life [1]	IC50 [2]	IC50 [3]	IC50 [4]
O=C(/C=C\n1cnc(-c2cc(C(F)(F)F)cc(C(F)(F)F)c2)n1)NN1CCCCC1=O [Compound 3, (Z)-3-(3-(3,5-bis(trifluoromethyl)phenyl)-1H-1,2,4-triazol-1-yl)-N-(2-oxopiperidin-1-yl)acrylamide]	5810 ng·h/mL	499 ng/mL	7.86 h	1 h	3.31 h			
CCC1=C(C)CN(NC(=O)/C=C\n2cnc(-c3cc(C(F)(F)F)cc(C(F)(F)F)c3)n2)C1=O [Compound 6, (Z)-3-(3-(3,5-bis(trifluoromethyl)phenyl)-1H-1,2,4-triazol-1-yl)-N-(3-ethyl-4-methyl-2-oxo-2,5-dihydro-1H-pyrrol-1-yl)acrylamide]						< 1000 nM	0.471 µM	0.487 µM
O=C(/C=C\n1cnc(-c2cc(C(F)(F)F)cc(C(F)(F)F)c2)n1)NN1CC[C@H](O)C1=O [Compound 10, (S,Z)-3-(3-(3,5-bis(trifluoromethyl)phenyl)-1H-1,2,4-triazol-1-yl)-N-(3-hydroxy-2-oxopyrrolidin-1-yl)acrylamide]						1000 to 10000 nM	0.527 µM	0.519 µM
O=C(/C=C\n1cnc(-c2cc(C(F)(F)F)cc(C(F)(F)F)c2)n1)NN1CC(O)CC1=O (centres unmarked) [Compound 15, (Z)-3-(3-(3,5-bis(trifluoromethyl)phenyl)-1H-1,2,4-triazol-1-yl)-N-(4-hydroxy-2-oxopyrrolidin-1-yl)acrylamide]							0.352 µM	1.23 µM
O=C(/C=C\n1cnc(-c2cc(C(F)(F)F)cc(C(F)(F)F)c2)n1)NN1CCC2(CC2)C1=O [Compound 18, (Z)-3-(3-(3,5-bis(trifluoromethyl)phenyl)-1H-1,2,4-triazol-1-yl)-N-(4-oxo-5-azaspiro[2.4]heptan-5-yl)acrylamide]	3100 ng·h/mL	320 ng/mL	6.17 h	0.5 h	3.12 h			
O=C(/C=C\n1cnc(-c2cc(C(F)(F)F)cc(C(F)(F)F)c2)n1)NN1CC2CCCCC2C1=O (centres unmarked) [Compound 28, (Z)-3-(3-(3,5-bis(trifluoromethyl)phenyl)-1H-1,2,4-triazol-1-yl)-N-(1-oxooctahydro-2H-isoindol-2-yl)acrylamide]						1000 to 10000 nM	0.769 µM	0.24 µM
O=C(/C=C\n1cnc(-c2cc(C(F)(F)F)cc(C(F)(F)F)c2)n1)NN1C(=O)[C@H]2C=C[C@@H]1C2 [Compound 30, (Z)-3-(3-(3,5-bis(trifluoromethyl)phenyl)-1H-1,2,4-triazol-1-yl)-N-((1S,4R)-3-oxo-2-azabicyclo[2.2.1]hept-5-en-2-yl)acrylamide]						< 1000 nM	0.392 µM	0.515 µM
O=C(/C=C\n1cnc(-c2cc(C(F)(F)F)cc(C(F)(F)F)c2)n1)Nn1ccccc1=O [Compound 56, (Z)-3-(3-(3,5-bis(trifluoromethyl)phenyl)-1H-1,2,4-triazol-1-yl)-N-(2-oxopyridin-1(2H)-yl)acrylamide]						< 1000 nM	0.449 µM	0.382 µM
O=C(/C=C\n1cnc(-c2cc(C(F)(F)F)cc(C(F)(F)F)c2)n1)N1CCC(=O)N1Cc1ccccc1 [Compound 67, (Z)-2-benzyl-1-(3-(3-(3,5-bis(trifluoromethyl)phenyl)-1H-1,2,4-triazol-1-yl)acryloyl)pyrazolidin-3-one]						< 1000 nM	0.483 µM	0.965 µM
O=C(/C=C\n1cnc(-c2cc(C(F)(F)F)cc(C(F)(F)F)c2)n1)NN1CC(OCC(F)(F)F)=CC1=O [Compound 83, (Z)-3-(3-(3,5-bis(trifluoromethyl)phenyl)-1H-1,2,4-triazol-1-yl)-N-(2-oxo-4-(2,2,2-trifluoroethoxy)-2,5-dihydro-1H-pyrrol-1-yl)acrylamide]						< 1000 nM	0.344 µM	0.214 µM
O=C(/C=C\n1cnc(-c2cc(C(F)(F)F)cc(C(F)(F)F)c2)n1)N1CCCN1c1cnccn1 [Compound 96, (Z)-3-(3-(3,5-bis(trifluoromethyl)phenyl)-1H-1,2,4-triazol-1-yl)-1-(2-(pyrazin-2-yl)pyrazolidin-1-yl)prop-2-en-1-one]						< 1000 nM	0.334 µM	0.675 µM

The remaining molecules from weak to strong by IC50 [3], led by results:

AUC(0-t) [1]	Cmax [1]	MRT [1]	Tmax [1]	half-life [1]	IC50 [2]	IC50 [3]	IC50 [4]	SMILES
					< 1000 nM	0.334 µM	0.504 µM	CC1CCN(NC(=O)/C=C\n2cnc(-c3cc(C(F)(F)F)cc(C(F)(F)F)c3)n2)C1=O (centres unmarked) [Compound 9, (Z)-3-(3-(3,5-bis(trifluoromethyl)phenyl)-1H-1,2,4-triazol-1-yl)-N-(3-methyl-2-oxopyrrolidin-1-yl)acrylamide]
					< 1000 nM	0.302 µM	0.487 µM	O=C(/C=C\n1cnc(-c2cc(C(F)(F)F)cc(C(F)(F)F)c2)n1)N1CCCN1C(=O)C1CC1 [Compound 98, (Z)-3-(3-(3,5-bis(trifluoromethyl)phenyl)-1H-1,2,4-triazol-1-yl)-1-(2-(cyclopropanecarbonyl)pyrazolidin-1-yl)prop-2-en-1-one]
					< 1000 nM	0.259 µM	0.41 µM	O=C(/C=C\n1cnc(-c2cc(C(F)(F)F)cc(C(F)(F)F)c2)n1)NN1CCC=CC1=O [Compound 88, (Z)-3-(3-(3,5-bis(trifluoromethyl)phenyl)-1H-1,2,4-triazol-1-yl)-N-(6-oxo-3,6-dihydropyridin-1(2H)-yl)acrylamide]
					< 1000 nM	0.238 µM	0.034 µM	O=C(/C=C\n1cnc(-c2cc(C(F)(F)F)cc(C(F)(F)F)c2)n1)NN1CCCCCC1=O [Compound 4, (Z)-3-(3-(3,5-bis(trifluoromethyl)phenyl)-1H-1,2,4-triazol-1-yl)-N-(2-oxoazepan-1-yl)acrylamide]
3690 ng·h/mL	674 ng/mL	4.34 h	1 h	4.53 h	< 1000 nM	0.202 µM	0.955 µM	CC1=C(C)C(=O)N(NC(=O)/C=C\n2cnc(-c3cc(C(F)(F)F)cc(C(F)(F)F)c3)n2)C1 [Compound 5, (Z)-3-(3-(3,5-bis(trifluoromethyl)phenyl)-1H-1,2,4-triazol-1-yl)-N-(3,4-dimethyl-2-oxo-2,5-dihydro-1H-pyrrol-1-yl)acrylamide]
					< 1000 nM	0.184 µM	0.277 µM	CC1=CC(=O)N(NC(=O)/C=C\n2cnc(-c3cc(C(F)(F)F)cc(C(F)(F)F)c3)n2)CC1 [Compound 89, (Z)-3-(3-(3,5-bis(trifluoromethyl)phenyl)-1H-1,2,4-triazol-1-yl)-N-(4-methyl-6-oxo-3,6-dihydropyridin-1(2H)-yl)acrylamide]
					< 1000 nM	0.168 µM	0.055 µM	CC(C)N1C(=O)CCN1C(=O)/C=C\n1cnc(-c2cc(C(F)(F)F)cc(C(F)(F)F)c2)n1 [Compound 65, (Z)-1-(3-(3-(3,5-bis(trifluoromethyl)phenyl)-1H-1,2,4-triazol-1-yl)acryloyl)-2-isopropylpyrazolidin-3-one]
					< 1000 nM	0.145 µM	0.266 µM	CCOC1=CC(=O)N(NC(=O)/C=C\n2cnc(-c3cc(C(F)(F)F)cc(C(F)(F)F)c3)n2)C1 [Compound 80, (Z)-3-(3-(3,5-bis(trifluoromethyl)phenyl)-1H-1,2,4-triazol-1-yl)-N-(4-ethoxy-2-oxo-2,5-dihydro-1H-pyrrol-1-yl)acrylamide]
					< 1000 nM	0.134 µM	0.277 µM	O=C(/C=C\n1cnc(-c2cc(C(F)(F)F)cc(C(F)(F)F)c2)n1)NN1C(=O)[C@H]2CC[C@@H]1C2 [Compound 32, (Z)-3-(3-(3,5-bis(trifluoromethyl)phenyl)-1H-1,2,4-triazol-1-yl)-N-((1R,4S)-3-oxo-2-azabicyclo[2.2.1]heptan-2-yl)acrylamide]
					< 1000 nM	0.016 µM	0.102 µM	[2H]C([2H])([2H])OC1=CC(=O)N(NC(=O)/C=C\n2cnc(-c3cc(C(F)(F)F)cc(C(F)(F)F)c3)n2)C1 [Compound 82, (Z)-3-(3-(3,5-bis(trifluoromethyl)phenyl)-1H-1,2,4-triazol-1-yl)-N-(4-(methoxy-d3)-2-oxo-2,5-dihydro-1H-pyrrol-1-yl)acrylamide]
